In US20240254118A1, “PRMT5 INHIBITORS AND USES THEREOF” (Gilead Sciences, Inc., priority 2022, published 2024):

Tested on: HCT116 MTAP-deleted cells
Experiment: Cell viability assay (CellTiter-Glo, 7 days), HCT116 MTAP-deleted
Conditions: Homo sapiens, HCT-116, 168 h

Row | Compound | CC50
1 | Cn1ncc2c(N)nc3ccc(C(=O)N(Cc4ccn(-c5ccccc5F)n4)NC(=O)C4CC4)cc3c21 [Example 434, 4-amino-N′-(cyclopropanecarbonyl)-N-((1-(2-fluorophenyl)-1H-pyrazol-3-yl)methyl)-1-methyl-1H-pyrazolo[4,3-c]quinoline-8-carbohydrazide] | < 100 nM
2 | CC(=O)N(C)N(Cc1cccc2ccoc12)C(=O)c1ccc2nc(N)c3cnn(C)c3c2c1 [Example 273, N′-acetyl-4-amino-N-(benzofuran-7-ylmethyl)-N′,1-dimethyl-1H-pyrazolo[4,3-c]quinoline-8-carbohydrazide] | < 100 nM
3 | CN(C(=O)C1CC1)N(Cc1ccc(C(F)F)cn1)C(=O)c1ccc2nc(N)c3cnn(C)c3c2c1 [Example 370, 4-amino-N′-(cyclopropanecarbonyl)-N-((5-(difluoromethyl)pyridin-2-yl)methyl)-N′,1-dimethyl-1H-pyrazolo[4,3-c]quinoline-8-carbohydrazide] | < 100 nM
4 | CC(=O)N(C)N(Cc1c(F)cc(-c2cnn(C(F)(F)F)c2)cc1F)C(=O)c1ccc2nc(N)c3cnn(C)c3c2c1 [Example 378, N′-acetyl-4-amino-N-[[2,6-difluoro-4-[1-(trifluoromethyl)pyrazol-4-yl]phenyl]methyl]-N′,1-dimethyl-pyrazolo[4,3-c]quinoline-8-carbohydrazide] | < 100 nM
5 | CC(=O)N(C)N(Cc1ccn(-c2ccccc2F)n1)C(=O)c1ccc2nc(N)c3cnn(C)c3c2c1 [Example 436, N′-acetyl-4-amino-N-((1-(2-fluorophenyl)-1H-pyrazol-3-yl)methyl)-N′,1-dimethyl-1H-pyrazolo[4,3-c]quinoline-8-carbohydrazide] | < 100 nM
6 | CC(=O)N(C)N(Cc1ccc(C#N)cc1OC(F)F)C(=O)c1ccc2nc(N)c3cnn(C)c3c2c1 [Example 408, N′-acetyl-4-amino-N-(4-cyano-2-(difluoromethoxy)benzyl)-N′,1-dimethyl-1H-pyrazolo[4,3-c]quinoline-8-carbohydrazide] | < 100 nM
7 | CC(=O)N(C)N(Cc1c(F)cc(-c2cnn(C3CC3)c2)cc1F)C(=O)c1ccc2nc(N)c3cnn(C)c3c2c1 [Example 381, N′-acetyl-4-amino-N-[[4-(1-cyclopropylpyrazol-4-yl)-2,6-difluoro-phenyl]methyl]-N′,1-dimethyl-pyrazolo[4,3-c]quinoline-8-carbohydrazide] | < 100 nM
8 | CN(C(=O)C1CC1)N(Cc1cc2cc(Cl)ccn2n1)C(=O)c1ccc2nc(N)c3cnn(C)c3c2c1 [Example 401] | < 100 nM
9 | COCc1cc(C(F)(F)F)ccc1CN(C(=O)c1ccc2nc(N)c3cnn(C)c3c2c1)N(C)C(=O)C1CC1 [Example 316, 4-amino-N′-(cyclopropanecarbonyl)-N-(2-(methoxymethyl)-4-(trifluoromethyl)benzyl)-N′,1-dimethyl-1H-pyrazolo[4,3-c]quinoline-8-carbohydrazide] | < 100 nM
10 | CN(C(=O)C1CC1)N(Cc1ccc(-c2cnn(C(F)F)c2)cn1)C(=O)c1ccc2nc(N)c3cnn(C)c3c2c1 [Example 353, 4-amino-N′-(cyclopropanecarbonyl)-N-((5-(1-(difluoromethyl)-1H-pyrazol-4-yl)pyridin-2-yl)methyl)-N′,1-dimethyl-1H-pyrazolo[4,3-c]quinoline-8-carbohydrazide] | < 100 nM
11 | Cc1nc(C(F)(F)F)ccc1CN(C(=O)c1ccc2nc(N)c3cnn(C)c3c2c1)N(C)C(=O)C1CC1 [Example 409, 4-amino-N′-(cyclopropanecarbonyl)-N′,1-dimethyl-N-((2-methyl-6-(trifluoromethyl)pyridin-3-yl)methyl)-1H-pyrazolo[4,3-c]quinoline-8-carbohydrazide] | < 100 nM
12 | CN(C(=O)C1CC1)N(Cc1ccc(OC(F)F)cn1)C(=O)c1ccc2nc(N)c3cnn(C)c3c2c1 [Example 291, 4-amino-N′-(cyclopropanecarbonyl)-N-((5-(difluoromethoxy)pyridin-2-yl)methyl)-N′,1-dimethyl-1H-pyrazolo[4,3-c]quinoline-8-carbohydrazide] | < 100 nM
13 | CC(=O)N(C)N(Cc1nc2ccccc2n1C(F)F)C(=O)c1ccc2nc(N)c3cnn(C)c3c2c1 [Example 431, N′-acetyl-4-amino-N-((1-(difluoromethyl)-1H-benzo[d]imidazol-2-yl)methyl)-N′,1-dimethyl-1H-pyrazolo[4,3-c]quinoline-8-carbohydrazide] | 100 to 1000 nM
14 | CN(C(=O)C1CC1)N(Cc1cc(F)c(-c2cnn(C(F)F)c2)cc1F)C(=O)c1ccc2nc(N)c3cnn(C)c3c2c1 [Example 314, 4-amino-N′-(cyclopropanecarbonyl)-N-(4-(1-(difluoromethyl)-1H-pyrazol-4-yl)-2,5-difluorobenzyl)-N′,1-dimethyl-1H-pyrazolo[4,3-c]quinoline-8-carbohydrazide] | < 100 nM
15 | CN(C(=O)C1CC1)N(Cc1ccc(OC(F)F)cn1)C(=O)c1cc2c(cc1F)nc(N)c1cnn(C)c12 [Example 290, 4-amino-N′-(cyclopropanecarbonyl)-N-((5-(difluoromethoxy)pyridin-2-yl)methyl)-7-fluoro-N′,1-dimethyl-1H-pyrazolo[4,3-c]quinoline-8-carbohydrazide] | < 100 nM
16 | CC(=O)N(C)N(Cc1ccc(-c2cnn(C)c2)cc1F)C(=O)c1ccc2nc(N)c3cnn(C)c3c2c1 [Example 373, N′-acetyl-4-amino-N-[[2-fluoro-4-(1-methylpyrazol-4-yl)phenyl]methyl]-N′,1-dimethyl-pyrazolo[4,3-c]quinoline-8-carbohydrazide] | < 100 nM
17 | CC(=O)N(C)N(Cc1ccc(-c2cnn(C(F)(F)F)c2)cc1Cl)C(=O)c1ccc2nc(N)c3cnn(C)c3c2c1 [Example 377, N′-acetyl-4-amino-N-[[2-chloro-4-[1-(trifluoromethyl)pyrazol-4-yl]phenyl]methyl]-N′,1-dimethyl-pyrazolo[4,3-c]quinoline-8-carbohydrazide] | < 100 nM
18 | CC(=O)N(C)N(Cc1ccc(-c2ccc(C(F)(F)F)s2)cc1F)C(=O)c1ccc2nc(N)c3cnn(C)c3c2c1 [Example 237, N′-acetyl-4-amino-N-(2-fluoro-4-(5-(trifluoromethyl)thiophen-2-yl)benzyl)-N′,1-dimethyl-1H-pyrazolo[4,3-c]quinoline-8-carbohydrazide] | < 100 nM
19 | CC(=O)N(C)N(Cc1cc(F)c(F)c(F)c1)C(=O)c1ccc2nc(N)c3cnn(C)c3c2c1 [Example 414, N′-acetyl-4-amino-N′,1-dimethyl-N-(3,4,5-trifluorobenzyl)-1H-pyrazolo[4,3-c]quinoline-8-carbohydrazide] | 100 to 1000 nM
20 | Cn1ncc2c(N)nc3ccc(C(=O)N(Cc4ccc(C(F)(F)F)cn4)N4CCOC5(CC5)C4)cc3c21 [Example 285, 4-amino-1-methyl-N-(4-oxa-7-azaspiro[2.5]octan-7-yl)-N-((5-(trifluoromethyl)pyridin-2-yl)methyl)-1H-pyrazolo[4,3-c]quinoline-8-carboxamide] | 100 to 1000 nM
21 | Cn1ncc2c(N)nc3ccc(C(=O)N(Cc4ccc(C(F)(F)F)cn4)N4CC5(CC5)COC4=O)cc3c21 [Example 319, 4-amino-1-methyl-N-(6-oxo-5-oxa-7-azaspiro[2.5]octan-7-yl)-N-((5-(trifluoromethyl)pyridin-2-yl)methyl)-1H-pyrazolo[4,3-c]quinoline-8-carboxamide] | < 100 nM
22 | CN(C(=O)C1CC1)N(Cc1ccc(Br)cn1)C(=O)c1ccc2nc(N)c3cnn(C)c3c2c1 [Example 354, 4-amino-N-((5-bromopyridin-2-yl)methyl)-N′-(cyclopropanecarbonyl)-N′,1-dimethyl-1H-pyrazolo[4,3-c]quinoline-8-carbohydrazide] | < 100 nM
23 | CC(=O)N(C)N(Cc1nc2ccc(Cl)cc2n1C)C(=O)c1ccc2nc(N)c3cnn(C)c3c2c1 [Example 426, N′-acetyl-4-amino-N-((6-chloro-1-methyl-1H-benzo[d]imidazol-2-yl)methyl)-N′,1-dimethyl-1H-pyrazolo[4,3-c]quinoline-8-carbohydrazide] | < 100 nM
24 | CC(=O)N(C)N(Cc1ccc(-c2cnn(C(F)(F)F)c2)nc1F)C(=O)c1ccc2nc(N)c3cnn(C)c3c2c1 [Example 347, N′-acetyl-4-amino-N-((2-fluoro-6-(1-(trifluoromethyl)-1H-pyrazol-4-yl)pyridin-3-yl)methyl)-N′,1-dimethyl-1H-pyrazolo[4,3-c]quinoline-8-carbohydrazide] | < 100 nM
25 | Cn1ncc2c(N)nc3cc(F)c(C(=O)N(Cc4ccc(C(F)(F)F)cn4)N4CC5(CC5)COC4=O)cc3c21 [Example 320, 4-amino-7-fluoro-1-methyl-N-(6-oxo-5-oxa-7-azaspiro[2.5]octan-7-yl)-N-((5-(trifluoromethyl)pyridin-2-yl)methyl)-1H-pyrazolo[4,3-c]quinoline-8-carboxamide] | < 100 nM
26 | COc1c(CN(C(=O)c2ccc3nc(N)c4cnn(C)c4c3c2)N(C)C(=O)C2CC2)ccc(Cl)c1F [Example 313, 4-amino-N-(4-chloro-3-fluoro-2-methoxybenzyl)-N′-(cyclopropanecarbonyl)-N′,1-dimethyl-1H-pyrazolo[4,3-c]quinoline-8-carbohydrazide] | < 100 nM
27 | Cn1ncc2c(N)nc3ccc(C(=O)N(Cc4ccc(C(F)(F)F)cn4)N4CCOC(C(F)(F)F)C4)cc3c21 (centres unmarked) [Example 428, 4-amino-1-methyl-N-(2-(trifluoromethyl)morpholino)-N-((5-(trifluoromethyl)pyridin-2-yl)methyl)-1H-pyrazolo[4,3-c]quinoline-8-carboxamide] | 100 to 1000 nM
28 | CC(=O)N(C)N(Cc1ccc(-c2cnn(C3(C)CC3)c2)cc1F)C(=O)c1ccc2nc(N)c3cnn(C)c3c2c1 [Example 247, N′-acetyl-4-amino-N-(2-fluoro-4-(1-(1-methylcyclopropyl)-1H-pyrazol-4-yl)benzyl)-N′,1-dimethyl-1H-pyrazolo[4,3-c]quinoline-8-carbohydrazide] | < 100 nM
29 | CC(=O)N(C)N(Cc1ccc(-c2cc(C(F)(F)F)ccn2)cc1F)C(=O)c1ccc2nc(N)c3cnn(C)c3c2c1 [Example 225, N′-acetyl-4-amino-N-(2-fluoro-4-(4-(trifluoromethyl)pyridin-2-yl)benzyl)-N′,1-dimethyl-1H-pyrazolo[4,3-c]quinoline-8-carbohydrazide] | < 100 nM
